The results in this text go back to paper PMC11272598, “RG7774 (Vicasinabin), an orally bioavailable cannabinoid receptor 2 (CB2R) agonist, decreases retinal vascular permeability, leukocyte adhesion, and ocular inflammation in animal models” (Frontiers in Pharmacology, 2024).

For data set [1], the target named is T1, endogenous CB2R in human Jurkat cells (Homo sapiens, UniProt P34972).
T1 construct: endogenous CB2R in human Jurkat cells; endogenous in cells; host or cells: Jurkat cells
Description: Competition binding, [^3H]-RO6753361, Jurkat cell membranes. How it is done: (§1) Competition and saturation binding assays were performed using the radiolabeled CB1R/CB2R agonist [^3H]-CP55940 (PerkinElmer, Waltham, MA, United States) in recombinant cell systems, and the newly developed CB2R-selective agonist [^3H]-RO6753361 ([Chicca et al., 2024]) in cells expressing endogenous CB1R/CB2R. Competition assays were conducted by incubating 5, 40, or 40 µg of membrane protein from CHO cells, Jurkat cells or spleen cells, respectively, with 1.5 nM [^3H]-CP55940 or 1.5 nM [^3H]-RO6753361 in the presence or absence of increasing concentrations of ligand (RG7774 or control) for 2 h at 30°C in a final volume of 0.2 mL of assay buffer (50 mmol/L Tris-HCl, 5 mmol/L MgCl2, 2.5 mmol/L EDTA, and 0.5% fatty acid-free BSA [pH 7.4] and 1% DMSO), with gentle shaking. Saturation binding assays were conducted by incubating 1–3 μg, 40 μg, or 30–40 μg of membrane protein from CHO cells, Jurkat cells, or spleen tissue, respectively, with 12 concentrations in the range of 80–0.039 nM [^3H]-CP55940 or [^3H]-RO6753361 for 2 h at 30°C in a final volume of 0.2 mL/well of assay buffer without DMSO. […] IC50 values and Hill slopes were determined with a 4-parameter logistic model using ActivityBase (ID Business Solution, Guilford, United Kingdom) and pKi values were determined using the Cheng-Prusoff equation ([Cheng and Prusoff, 1973]).

In data set [2] the target is T2, human CB1R (Homo sapiens, UniProt P21554). Description: Competition binding, [^3H]-CP55940, CHO cell membranes. The following applies: CHO cells. More on the design: expressed in transfected cells; host or cells: CHO cells (membranes). As to the method:
as §1

Data set [3] is described as follows: Brain:plasma ratio after oral administration (GLP toxicology studies, data on file). In kind it is in vivo. The following applies: rat, rats, read-out: Mean brain:plasma ratios.
Data set [4] deals with T2, human CB1R. Put plainly: Forskolin-stimulated cAMP assay in CHO cells. In kind it is cell-based. On the set-up: bgal (beta-galactosidase fragment of the PathHunter system); host or cells: CHO-K1. The note with it: recombinant CHO cells. How it is done:
The inhibitory effects of RG7774 on forskolin-stimulated accumulation of cAMP were determined using the cAMP-Nano-TRF detection kit (Roche Diagnostics, Penzberg, Germany), as previously described ([Porter et al., 2019]). CHOK1hCB1_bgal, CHOK1mCB2_bgal, and CHOK1hCB2_bgal cells (DiscoveRx, Fremont, CA, United States) were seeded 17–24 h prior to the experiment at a density of 3 × 10^4 cells per well in a black 96-well plate with a flat, clear bottom (Corning, Wiesbaden, Germany) prior to incubating in 5% CO2 at 37°C in a humidified incubator. The growth medium was exchanged with Krebs Ringer bicarbonate buffer containing 1 mM IBMX and 0.1% fatty acid-free BSA and incubated at 30°C for 1 h. RG7774 or positive control (CP55940) (1 µM) was added to a 0.1 mL final assay volume and the mixture was incubated at 30°C for 30 min. The assay was stopped by adding 50 μL 3x lysis reagent and shaking for 2 h at RT. The time-resolved energy transfer was measured using an LF502 Nanoscan FLT (IOM, Berlin, Germany) equipped with a laser excitation source. cAMP content was determined from a standard curve spanning 10–0.13 nM cAMP. Efficacies were expressed as a percentage relative to the positive control.
In general terms: Changes in cAMP serve as a functional read-out for many G protein-coupled receptors.

The next data set deals with Jurkat cells. Description: xCELLigence impedance assay in Jurkat cells. The following applies: xCELLigence, 1 h. In kind it is cell-based, human. As to the method:
Background impedance was determined in 96-well RTCA E-plates (Agilent Technologies, Santa Clara, CA, United States) coated with 150 μg/mL fibronectin/H2O (Sigma-Aldrich, St. Louis, MO, United States) and containing 50 μL RPMI 1640 assay medium (Fisher Scientific, Schwerte, Germany) 31870) with 10% fetal calf serum (FCS). Jurkat cells (200,000 cells per well) were seeded in 100 μL of growth medium, allowed to settle for 30 min at RT, and cultured overnight at 37°C and 5% CO2. Dose-response curves were generated by adding increasing concentrations of RG7774 to seeded Jurkat cells and performing impedance measurements (xCelligence RTCA M, Agilent Technologies, Santa Clara, CA, United States) at baseline and 1 h after treatment. Displacement experiments were performed by incubating seeded Jurkat cells with 10 μM SR144528, a CB2R-selective antagonist (Tocris Bioscience, Bristol, United Kingdom) or 10 μM RO6851228 (a CB2R-selective inverse agonist; in-house synthesis) in assay medium overnight at 37°C and 5% CO2. Cells were re-treated with 10 μM SR144528 or […] for 1 h and stimulated with 233 nM RG7774 in assay medium. […] Displacement data are presented as the percentage of the maximal normalized cell index determined after antagonist/inverse agonist treatment relative to the percentage of the normalized cell index at 109 nM RG7774 treatment.

Another data set deals with T3, Human 15-LOX (Homo sapiens, UniProt O15296).
T3 construct: purchased Cayman Chemical Company #10011263
T3 sequence (O15296 whole entry): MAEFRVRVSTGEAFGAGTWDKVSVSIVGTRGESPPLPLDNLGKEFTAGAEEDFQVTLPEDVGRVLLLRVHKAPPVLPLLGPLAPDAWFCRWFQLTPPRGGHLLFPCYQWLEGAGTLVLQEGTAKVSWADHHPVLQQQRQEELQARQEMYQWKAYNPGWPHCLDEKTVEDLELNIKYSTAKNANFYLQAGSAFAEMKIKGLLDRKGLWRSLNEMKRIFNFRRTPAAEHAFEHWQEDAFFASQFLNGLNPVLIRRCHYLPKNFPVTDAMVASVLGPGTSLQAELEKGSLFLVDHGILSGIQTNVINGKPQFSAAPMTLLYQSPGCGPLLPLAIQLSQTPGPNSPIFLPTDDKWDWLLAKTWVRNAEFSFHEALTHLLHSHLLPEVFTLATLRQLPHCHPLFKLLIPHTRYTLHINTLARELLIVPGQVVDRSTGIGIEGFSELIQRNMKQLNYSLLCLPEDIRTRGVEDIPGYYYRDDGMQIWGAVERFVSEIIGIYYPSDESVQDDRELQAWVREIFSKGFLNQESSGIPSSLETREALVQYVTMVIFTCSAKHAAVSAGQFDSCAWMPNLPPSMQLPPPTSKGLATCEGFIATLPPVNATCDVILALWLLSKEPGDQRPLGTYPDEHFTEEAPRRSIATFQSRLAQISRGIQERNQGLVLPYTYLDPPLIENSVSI
Description: Human 15-LOX assay. The following applies: RG7774 10 µM; read-out: Mean ± SEM % inhibition of control, Human 15-LOX. In kind it is biochemical.

Where “and” joins values, the source holds several entries; their conditions need not be identical. Equal entries are not always repeated.

T2 sequence (P21554 whole entry): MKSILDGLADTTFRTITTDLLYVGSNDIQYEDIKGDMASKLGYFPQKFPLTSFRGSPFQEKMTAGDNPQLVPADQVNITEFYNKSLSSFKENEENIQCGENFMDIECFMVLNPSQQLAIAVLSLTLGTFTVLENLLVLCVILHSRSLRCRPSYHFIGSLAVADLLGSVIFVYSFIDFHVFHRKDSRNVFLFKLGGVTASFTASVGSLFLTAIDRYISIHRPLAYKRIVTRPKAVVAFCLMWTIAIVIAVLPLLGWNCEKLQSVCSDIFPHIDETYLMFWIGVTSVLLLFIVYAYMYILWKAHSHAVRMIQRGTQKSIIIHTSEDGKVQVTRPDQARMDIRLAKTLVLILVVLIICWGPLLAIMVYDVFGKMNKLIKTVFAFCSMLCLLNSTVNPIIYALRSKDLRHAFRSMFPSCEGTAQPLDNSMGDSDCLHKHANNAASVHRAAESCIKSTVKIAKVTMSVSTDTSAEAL
T1 sequence (P34972 whole entry): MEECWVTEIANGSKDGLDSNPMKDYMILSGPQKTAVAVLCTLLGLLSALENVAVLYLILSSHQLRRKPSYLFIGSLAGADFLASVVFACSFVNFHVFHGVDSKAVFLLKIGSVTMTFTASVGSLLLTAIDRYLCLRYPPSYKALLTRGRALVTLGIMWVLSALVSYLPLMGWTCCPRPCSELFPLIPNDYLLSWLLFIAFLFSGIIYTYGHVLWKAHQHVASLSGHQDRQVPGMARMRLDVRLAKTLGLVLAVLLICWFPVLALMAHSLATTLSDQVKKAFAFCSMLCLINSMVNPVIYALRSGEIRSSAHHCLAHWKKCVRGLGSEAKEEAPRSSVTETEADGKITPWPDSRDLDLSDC
Description for Human 15-LOX: The inhibitory effects of different concentrations of RG7774 (0.1-500 µM) on the activities of human recombinant 5-LOX (Cayman Chemical Company #60402), 15-LOX (Cayman Chemical Company #10011263), and human platelet-derived 12-LOX were determined using the Biovision Lipoxygenase Activity Assay Kit (#BVN-K978-100). This kit converts the LOX substrate to an intermediate that reacted with the probe, generating a fluorescent product. The effect of RG7774 (preincubated for 15 min) at 10 µM on LOXs (5-LOX: 0.5 or 1.2 µg; 12-LOX: 20 µg; 15-LOX: 0.23 or 0.3 µg) was ascertained by adding the compounds directly to the incubation medium and the fluorescent signal, recorded at excitation/emission 500/536 nm at 30 sec intervals for 30-40 min, was directly proportional to LOX activity. […] The percentage of human 5-, 12-, and 15-LOX activity (control) was estimated from the amount of oxidized probe in the reaction using a standard curve.

As to `Cn1nnnc1Cn1nnc2c(N3CC[C@H](O)C3)nc(C(C)(C)C)nc21` [RG7774, (S)-1-(5-tert-butyl-3-[(1-methyl-1H-tetrazol-5-yl)methyl]-3H-[1,2,3]triazolo[4,5-d]pyrimidin-7-yl)pyrrolidin-3-ol], in data set [1], the Ki was 31.9 ± 13.4 nM. Also, the “binding to recombinant human CB1R” value at human CB1R [2] is on record as “no binding”. Further, the Kp in data set [3] fell in the range of 0.0955 to 0.213. For the same molecule, the “effect on human CB1R in cAMP assay” value at human CB1R [4] was “no effect”. For the same molecule, the “EC50, cell index relative to maximal cell index of RG7774 at 233 nM” value in the data set on Jurkat cells was 10.8 nM and 10.8 ± 4.2 nM. Also, the inhibition at 10 µM on Human 15-LOX is -8.7%.

As a reminder, the Ki is the equilibrium dissociation constant of an inhibitor or competing ligand from its target. A lower Ki goes with a stronger hold on the target. Broadly, the inhibition is the change of the read-out against control, counted positive when it falls.
